The text below walks through data of publication PMC9837035 (Nature Communications, 2023).

In assay [1] the target is T1, SET7/9 (Homo sapiens, UniProt Q8WTS6).
T1 construct: purchased Reaction Biology
T1 sequence (Q8WTS6 1-366): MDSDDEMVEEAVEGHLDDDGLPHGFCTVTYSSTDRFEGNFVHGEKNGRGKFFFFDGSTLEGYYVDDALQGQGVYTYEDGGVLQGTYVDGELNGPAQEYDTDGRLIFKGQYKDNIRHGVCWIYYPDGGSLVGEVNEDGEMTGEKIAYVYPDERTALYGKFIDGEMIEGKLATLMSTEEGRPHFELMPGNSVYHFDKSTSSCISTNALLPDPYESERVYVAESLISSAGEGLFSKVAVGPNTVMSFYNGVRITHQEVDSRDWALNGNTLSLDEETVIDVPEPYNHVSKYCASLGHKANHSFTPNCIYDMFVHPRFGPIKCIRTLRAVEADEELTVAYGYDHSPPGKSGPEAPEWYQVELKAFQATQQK
Kind of assay: Radioisotope-based methyltransferase assay (selectivity). It is filed as biochemical.

The target in assay [2] is T2, SMYD2 (Homo sapiens, UniProt Q9NRG4).
T2 construct: purchased Reaction Biology
T2 sequence (Q9NRG4 whole entry): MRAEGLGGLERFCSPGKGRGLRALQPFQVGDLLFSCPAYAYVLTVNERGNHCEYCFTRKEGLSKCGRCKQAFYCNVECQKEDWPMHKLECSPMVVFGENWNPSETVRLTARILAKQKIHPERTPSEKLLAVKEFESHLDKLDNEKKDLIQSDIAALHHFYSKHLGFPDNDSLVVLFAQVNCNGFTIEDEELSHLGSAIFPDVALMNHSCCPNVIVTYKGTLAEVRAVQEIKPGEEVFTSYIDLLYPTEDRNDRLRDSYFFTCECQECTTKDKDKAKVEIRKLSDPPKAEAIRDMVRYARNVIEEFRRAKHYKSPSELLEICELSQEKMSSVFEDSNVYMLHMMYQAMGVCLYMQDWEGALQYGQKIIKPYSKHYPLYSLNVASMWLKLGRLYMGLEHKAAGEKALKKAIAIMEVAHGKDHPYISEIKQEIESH
The description is as above. It is filed as biochemical.

Assay [3] concerns the target T3, DNMT3b/3L (Homo sapiens, UniProt Q9UBC3).
T3 construct: purchased Reaction Biology
The assay is described as above. It is filed as biochemical.

The target in assay [4] is T4, DNMT3a (Homo sapiens, UniProt Q9Y6K1).
T4 construct: purchased Reaction Biology
T4 sequence (Q9Y6K1 whole entry, looked up): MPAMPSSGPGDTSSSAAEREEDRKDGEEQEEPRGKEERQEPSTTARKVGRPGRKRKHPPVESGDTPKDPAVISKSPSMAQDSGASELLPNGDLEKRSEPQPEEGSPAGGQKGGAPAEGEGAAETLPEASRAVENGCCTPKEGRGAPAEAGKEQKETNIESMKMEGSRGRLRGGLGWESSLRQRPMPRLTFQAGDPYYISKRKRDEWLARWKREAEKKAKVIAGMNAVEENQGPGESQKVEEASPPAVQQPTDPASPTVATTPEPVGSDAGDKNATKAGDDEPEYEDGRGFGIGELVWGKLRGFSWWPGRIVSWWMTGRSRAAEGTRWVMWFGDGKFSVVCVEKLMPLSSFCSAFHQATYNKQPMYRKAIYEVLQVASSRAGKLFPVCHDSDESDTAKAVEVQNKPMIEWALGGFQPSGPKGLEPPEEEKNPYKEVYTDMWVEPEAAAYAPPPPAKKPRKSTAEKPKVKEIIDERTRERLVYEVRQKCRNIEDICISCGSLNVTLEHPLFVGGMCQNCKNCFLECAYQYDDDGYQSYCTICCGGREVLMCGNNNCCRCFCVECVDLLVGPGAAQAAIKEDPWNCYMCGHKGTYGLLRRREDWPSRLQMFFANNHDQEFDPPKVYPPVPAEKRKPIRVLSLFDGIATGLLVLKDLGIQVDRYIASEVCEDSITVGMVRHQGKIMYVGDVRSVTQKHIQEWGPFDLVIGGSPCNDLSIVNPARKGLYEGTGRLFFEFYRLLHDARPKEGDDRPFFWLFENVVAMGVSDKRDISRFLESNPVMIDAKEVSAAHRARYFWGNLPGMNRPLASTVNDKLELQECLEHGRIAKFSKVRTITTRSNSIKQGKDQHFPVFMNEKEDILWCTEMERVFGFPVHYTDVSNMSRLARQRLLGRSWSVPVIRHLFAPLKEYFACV
The description is as above. It is filed as biochemical.

For assay [5], the target named is T5, SUV420H1TV2 (Homo sapiens, UniProt Q4FZB7).
T5 construct: purchased Reaction Biology
T5 sequence (Q4FZB7 1-393 isoform Q4FZB7-2): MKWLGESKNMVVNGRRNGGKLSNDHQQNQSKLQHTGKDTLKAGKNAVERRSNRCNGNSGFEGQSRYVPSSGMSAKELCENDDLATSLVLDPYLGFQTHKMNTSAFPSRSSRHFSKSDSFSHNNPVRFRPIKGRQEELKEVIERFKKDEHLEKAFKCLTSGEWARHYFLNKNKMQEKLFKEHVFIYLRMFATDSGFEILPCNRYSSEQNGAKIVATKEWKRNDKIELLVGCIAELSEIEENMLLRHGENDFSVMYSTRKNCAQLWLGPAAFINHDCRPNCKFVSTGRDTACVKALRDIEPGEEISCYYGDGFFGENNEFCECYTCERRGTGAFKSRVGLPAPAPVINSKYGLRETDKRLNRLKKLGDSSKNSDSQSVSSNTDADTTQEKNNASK
Described as above. It is filed as biochemical.

Assay [6] concerns BCL11A occupancy at the β-globin locus. Kind of assay: ChIP-qPCR with antibody against BCL11A in HUDEP-2 cells. It is filed as cell-based, human. More on the design: ChIP-qPCR, antibody against BCL11A: scale not given here. To be noted: for occupancies of BCL11A in the BGLT3 gene region: HUDEP-2, 4 days. How it is done:
A total of 0.5–1 × 10^6 cells were cross-linked with 1% formaldehyde for 10 min at room temperature and the reaction was quenched with 250 mM glycine. Cross-linked cells were then lysed with buffer 1 (15 mM Tris-HCl (pH 7.5), 60 mM KCl, 15 mM NaCl, 5 mM MgCl2, 0.1 mM EGTA, 300 mM sucrose, […], 1 mM phenylmethanesulfonyl fluoride (PMSF), 0.5% NP40) and incubated on ice for 10 min. After centrifugation, the pellet was re-suspended in buffer 2 (15 mM Tris-HCl (pH 7.5), 60 mM KCl, 15 mM NaCl, 5 mM MgCl2, 0.1 mM EGTA, 1.2 M sucrose, […], 1 mM PMSF). After centrifugation, the pellet was then re-suspended in MNase buffer (50 mM Tris-HCl (pH 7.5), 1 mM CaCl2, 4 mM MgCl2, 320 mM sucrose, 1 mM PMSF) and digested with 100 U of micrococcal nuclease (Takara) at 37 °C for 15 min. After the reaction was quenched with 20 mM EDTA, the supernatants were incubated with antibodies (anti-H3K9me2 (1:100), Abcam, ab1220; anti-H3K9ac (1:100), Active Motif, 39917; Goat anti-IgG (H + L) (1:100), Jackson Immunoresearch; anti-BCL11A (1:100), Novus Biologicals, NB600-261; anti-ZBTB7A (1:100), Thermo Fisher Scientific, eBioscience (13E9); anti-CHD3 (1:100), Novus Biologicals, NB-100-60412; anti-CHD4 (1:100), abcam, ab240640) and Protein A/G PLUS-Agarose (Santa Cruz Biotechnology) overnight at 4 °C. Beads were washed sequentially once with the following buffers: wash buffer A (50 mM Tris-HCl (pH 7.5), 75 mM NaCl, 10 mM EDTA, 0.01% NP40), wash buffer B (50 mM Tris-HCl (pH 7.5), 100 mM NaCl, 10 mM EDTA, 0.01% NP40), wash buffer C (50 mM Tris-HCl (pH 7.5), 175 mM NaCl, 10 mM EDTA, 0.01% NP40). After treatment with proteinase K in buffer 4 (20 mM Tris-HCl (pH 8.0), 10 mM EDTA, 400 mM NaCl, 0.5% SDS) at 56 °C overnight, DNA was purified using the FastGene Gel/PCR Extraction Kit (Nippon Genetics). The samples were analyzed by qPCR. Primers are listed in Supplementary Table 10. ChIP-seq experiments were performed by GENEWIZ. Tracks were visualized using the integrative genome viewer. ChIP-seq analysis were analyzed Cutadapt (V1.9.1) for QC, FastQC (V0.10.1) for QC assessment, Bowtie (V2.1.0) for mapping, strand cross-correlation (SCC) for ChIP quality assessment, MACS2 for peak calling, and R package ChIPpeakAnno for Peak annotated.

Assay [7] concerns BGLT3-knockdown HUDEP-2 cells. Kind of assay: RT-qPCR of BGLT3, β- and γ-globin in BGLT3-knockdown HUDEP-2 cells. It is filed as cell-based, human. The note with it: for induction of γ-globin in BGLT3-knockdown cell lines: HUDEP-2; for BGLT3 expression / β-globin expression / γ-globin expression: shctrl DMSO = 1, 3 replicates. The method, then:
Total cellular RNA was prepared using the Tissue Total RNA Mini Kit (FAVORGEN), and cDNA was synthesized using ReverTra Ace Master Mix (TOYOBO). Expression of target genes was analyzed using THUNDERBIRD SYBR qPCR Mix (TOYOBO) on a CFX Connect Real Time System (Bio-Rad). The qPCR data were acquired on CFX Maestro (Bio-Rad). Primers are listed in Supplementary Table 10. GAPDH was used as a reference. Primers were purchased from INTEGRATED DNA TECHNOLOGIES or FASMAC.
Retroviral infection was used as previously described to establish cell lines stably expressing BGLT3 and transfected with the pCX4-pur vector, as well as knockdown cell lines transfected with the pSUPER vector[58]. Briefly, retroviruses were produced by transfecting PLAT-E cells with pCX4-pur-BGLT3 or pSUPER-ctrl, pSUPER-BGLT3, or pSUPER-G9a using 5 μg/mL polyethylenimine MAX (PEI MAX, Polysciences). Two days after transfection, the culture supernatant was collected and filtered through a 0.45-μm filter (Millipore) and used for infection with 8 μg/mL polybrene (Sigma). Forty-eight hours after infection, the infected cells were selected with 0.2 μg/mL puromycin (InvivoGen). The clonal puromycin-resistant cells were established via limiting dilution. The desired clones were confirmed by western blotting or qPCR.
A general note: In qPCR the cycle at which signal appears reflects the starting amount.

[8] abbreviates: shBGLT3#1 HUDEP-2 cells treated with hydroxyurea.
Setting [9] is: shBGLT3#2 HUDEP-2 cells treated with hydroxyurea.
[10] abbreviates: shBGLT3#3 HUDEP-2 cells treated with hydroxyurea.
Setting [11] is: shctrl HUDEP-2 cells treated with hydroxyurea.

Where “and” joins values, the source holds several entries; their conditions need not be identical. Identical values can stand only once. Like-named read-outs stand apart in the source and are kept apart here.

As usually defined, the IC50 is the concentration at which inhibition is half-maximal. Take `Nc1ncnc2c1ncn2[C@@H]1O[C@H](CSCC[C@H](N)C(=O)O)[C@@H](O)[C@H]1O` [SAH, S-(5'-Adenosyl)-L-homocysteine, reference compound]: the IC50 worked out at 81.8 µM in assay [1] (SET7/9, 1 μM SAM); 81.8 µM in assay [1] (SET7/9, RK-701 in duplicate); 1.9 µM in assay [2] (SMYD2, 1 μM SAM); 1.91 µM in assay [2] (SMYD2, RK-701 in duplicate); 0.05 µM in assay [3] (1 μM SAM); 0.0542 µM in assay [3] (RK-701 in duplicate). The IC50 is 0.3 µM in assay [4] (IC50, DNMT3a, 1 μM SAM); 0.3 µM in assay [4] (IC50, DNMT3a, RK-701 in duplicate); 126 µM in assay [5].
In the case of `NC(=O)NO` [Hydroxyurea, hydroxyurea], the “ChIP-qPCR, antibody against BCL11A” value in assay [6] (BGLT3 locus, HUDEP-2 cells treated with hydroxyurea, replicates 1a-3b) was 0.8842 and 1.017 and 0.83 and 0.5175 and 0.6913 and 0.7867; in assay [6] (HS1, HUDEP-2 cells treated with hydroxyurea, replicates 1a-3b) it was 1.064 and 0.5507 and 0.5814 and 1.256 and 1.601 and 1.4807; in assay [6] (HS2, HUDEP-2 cells treated with hydroxyurea, replicates 1a-3b), 0.08682 and 2.447 and 1.693 and 2.52 and 0.949 and 0.09517; in assay [6] (HS3, HUDEP-2 cells treated with hydroxyurea, replicates 1a-3b), 1.655 and 3.8122 and 0.8818 and 0.7067 and 0.6435 and 2.151; in assay [6] (HS4, HUDEP-2 cells treated with hydroxyurea, replicates 1a-3b) it was 0.8173 and 1.536 and 0.3618 and 0.975 and 1.091 and 0.6403; in assay [6] (β-globin promoter, HUDEP-2 cells treated with hydroxyurea, replicates 1a-3b), 0.5672 and 1.0178 and 0.4614 and 1.054 and 0.8774 and 0.8041. Besides, the “ChIP-qPCR, antibody against BCL11A” value in assay [6] (γ-globin promoter, HUDEP-2 cells treated with hydroxyurea, replicates 1a-3b) was 0.6219 and 0.3788 and 0.8175 and 0.7872 and 0.7026 and 0.3349; in assay [6] (δ-globin promoter, HUDEP-2 cells treated with hydroxyurea, replicates 1a-3b) it was 0.5737 and 0.8872 and 0.4941 and 0.547 and 0.6567 and 0.5438. Moreover, the “occupancies of BCL11A in the BGLT3 gene region” value in assay [6] is on record as “decreased”. For the same molecule, in assay [7], the “induction of γ-globin in BGLT3-knockdown cell lines” value is recorded as “significantly suppressed by BGLT3 knockdown”. The BGLT3 expression in assay [7] (setting [8]) is 0.1509 and 0.1371 and 0.1512; in assay [7] (setting [9]) it was 0.4826 and 0.5314 and 0.5646; in assay [7] (setting [10]) it was 0.2947 and 0.3306 and 0.3028; in assay [7] (setting [11]), 2.21 and 1.619 and 1.809. Also, the β-globin expression in assay [7] (setting [8]) was 1.466 and 1.446 and 1.721; in assay [7] (setting [9]), 1.233 and 1.155 and 1.519; in assay [7] (setting [10]), 1.946 and 1.495 and 2.515; in assay [7] (setting [11]) it was 1.158 and 0.7746 and 0.9701. Besides, the γ-globin expression in assay [7] (setting [8]) is 0.1913 and 0.1897 and 0.2071; in assay [7] (setting [9]), 0.3698 and 0.274 and 0.2235; in assay [7] (setting [10]) it was 0.4324 and 0.5055 and 0.5513; in assay [7] (setting [11]) it was 2.343 and 1.97 and 1.753.
As to `Cc1c(C(=O)NC(CCC2CC2)C(=O)Nc2ccc(C#N)cc2)[nH]c2c1C(=O)CC(C)(C)C2` (stereo not drawn) [RK-701], the half-maximal inhibitory concentration (IC50) in assay [1] (SET7/9, 1 μM SAM) is greater than 100 µM; in assay [1] (SET7/9, RK-701 in duplicate), greater than 100 µM; in assay [2] (SMYD2, 1 μM SAM) it was greater than 100 µM; in assay [2] (SMYD2, RK-701 in duplicate), greater than 100 µM; in assay [3] (1 μM SAM) it was greater than 100 µM; in assay [3] (RK-701 in duplicate), greater than 100 µM. The half-maximal inhibitory concentration (IC50) is greater than 100 µM in assay [4] (DNMT3a, 1 μM SAM, read-out: IC50); greater than 100 µM in assay [4] (DNMT3a, RK-701 in duplicate, read-out: IC50); greater than 100 µM in assay [5] (SUV420H1TV2, 1 μM SAM); greater than 100 µM in assay [5] (SUV420H1TV2, RK-701 in duplicate). In addition, the “ChIP-qPCR, antibody against BCL11A” value is 0.6314 and 0.7848 and 0.4856 and 0.8245 and 0.6776 and 0.5891 in assay [6] (BGLT3 locus, HUDEP-2 cells treated with RK-701, replicates); 0.3627 and 0.3768 and 0.661 and 0.2587 and 0.1661 and 0.2446 in assay [6] (HS1, HUDEP-2 cells treated with RK-701, replicates); 0.4595 and 0.8137 and 0.6566 and 1.335 and 1.936 and 0.6063 and 1.138 and 0.7851 in assay [6] (HS2, HUDEP-2 cells treated with RK-701, replicates); 0.4555 and 0.6595 and 0.2297 and 0.7103 and 0.2788 and 0.5275 in assay [6] (HS3, HUDEP-2 cells treated with RK-701, replicates); 0.3987 and 0.3554 and 0.6174 and 0.2389 in assay [6] (HS4, HUDEP-2 cells treated with RK-701, replicates); 0.04573 and 0.1654 and 0.1051 and 0.1187 and 0.1597 and 0.09847 and 0.07533 in assay [6] (β-globin promoter, HUDEP-2 cells treated with RK-701, replicates). The “ChIP-qPCR, antibody against BCL11A” value in assay [6] (γ-globin promoter, HUDEP-2 cells treated with RK-701, replicates) is 0.1313 and 0.1159 and 0.3396 and 0.07171 and 0.121 and 0.0314; in assay [6] (δ-globin promoter, HUDEP-2 cells treated with RK-701, replicates), 0.018 and 0.05206 and 0.04359 and 0.0353 and 0.01403 and 0.04746. Besides, the “occupancies of BCL11A in the BGLT3 gene region” value in assay [6] is “significantly suppressed”. The “induction of γ-globin in BGLT3-knockdown cell lines” value in assay [7] is recorded as “almost completely abolished”.
